Read-outs that look alike come from different tables or passages of the source.
Experiments:
SD rats [1] = test: animal or person; format: in vivo; settings: Rattus norvegicus, iv, read-out: Minimal effective analgesic dose(mg/kg)
SD rats [2] = test: animal or person; format: in vivo, rat; settings: iv; for minimal effective dose: Rattus norvegicus, read-out: Minimal effective anesthetic dose(mg/kg); for Onset time / Righting Reflex Duration / Sedation Duration: rat, in vivo

In the case of `CCOC(=O)N(c1ccc(C)cc1)N1CCN(c2cc(C(C)C)c(O)c(C(C)C)c2)CC1` [Cpd-66], the minimal effective dose (SD rats [1]) is reported as 20 to 40 mg/kg, the minimal effective dose (SD rats [2]) is reported as 20 to 40 mg/kg and the “Onset time” value (SD rats [2]) is reported as 0.22 min. The “Righting Reflex Duration” value (SD rats [2]) was 40.40 min and the “Sedation Duration” value (SD rats [2]) was 115.20 min.
`CCOC(=O)N(c1cccc(Cl)c1)N1CCN(c2cc(C(C)C)c(O)c([C@H](C)C3CC3)c2)CC1` [Cpd-69] was tested, and the minimal effective dose (SD rats [1]) was 10 to 20 mg/kg, the minimal effective dose (SD rats [2]) was 10 to 20 mg/kg and the “Onset time” value (SD rats [2]) was 0.68 to 2.12 min. For the same compound, the “Righting Reflex Duration” value (SD rats [2]) was 1.28 to 74.05 min and the “Sedation Duration” value (SD rats [2]) was 19.78 to 160.07 min.
With `CCOC(=O)N(c1cccc(C)c1)N1CCN(c2cc(C(C)C)c(O)c([C@H](C)C3CC3)c2)CC1` [Cpd-70] the minimal effective dose (SD rats [1]) was 10 to 20 mg/kg, the minimal effective dose (SD rats [2]) was 10 to 20 mg/kg and the “Onset time” value (SD rats [2]) was 0.38 to 1.07 min. The “Righting Reflex Duration” value (SD rats [2]) was 5.02 to 39.35 min and the “Sedation Duration” value (SD rats [2]) was 48.32 to 106.60 min.
With `CCOC(=O)N(c1ccc(Cl)cc1)N1CCN(c2cc(C(C)C)c(O)c([C@H](C)C3CC3)c2)CC1` [Cpd-73] the minimal effective dose (SD rats [1]) was 20 to 40 mg/kg, the minimal effective dose (SD rats [2]) was 10 to 20 mg/kg and the “Onset time” value (SD rats [2]) was 0.83 to 1.65 min. For the same compound, the “Righting Reflex Duration” value (SD rats [2]) was 8.78 to 25.28 min and the “Sedation Duration” value (SD rats [2]) was 44.83 to 119.62 min.
In the case of `CCOC(=O)N(c1ccc(OC)c(OC)c1)N1CCN(c2cc(C(C)C)c(O)c(C(C)C)c2)CC1` [Cpd-96], the minimal effective dose (SD rats [1]) is reported as 20 to 40 mg/kg, the minimal effective dose (SD rats [2]) is reported as 20 to 40 mg/kg and the “Onset time” value (SD rats [2]) is reported as 0.13 to 0.75 min. For the same compound, the “Righting Reflex Duration” value (SD rats [2]) was 1.32 to 43.20 min and the “Sedation Duration” value (SD rats [2]) was 86.20 to 295.93 min.
`CCOC(=O)N(c1ccc(SC)cc1)N1CCN(c2cc(C(C)C)c(O)c(C(C)C)c2)CC1` [Cpd-97] was tested, and the minimal effective dose (SD rats [1]) was 10 to 20 mg/kg, the minimal effective dose (SD rats [2]) was 5 to 10 mg/kg and the “Onset time” value (SD rats [2]) was 0.20 to 0.60 min. For the same compound, the “Righting Reflex Duration” value (SD rats [2]) was 5.25 to 32.28 min and the “Sedation Duration” value (SD rats [2]) was 31.60 to 83.28 min.
`CCCOc1ccc(N(C(=O)OCC)N2CCN(c3cc(C(C)C)c(O)c(C(C)C)c3)CC2)cc1` [Cpd-99] was tested, and the minimal effective dose (SD rats [1]) was 10 to 20 mg/kg, the minimal effective dose (SD rats [2]) was 10 to 20 mg/kg and the “Onset time” value (SD rats [2]) was 1.03 to 1.38 min. For the same compound, the “Righting Reflex Duration” value (SD rats [2]) was 25.58 to 25.87 min and the “Sedation Duration” value (SD rats [2]) was 67.73 to 88.57 min.
For `CCOC(=O)N(c1ccc(OC(C)C)cc1)N1CCN(c2cc(C(C)C)c(O)c(C(C)C)c2)CC1` [Cpd-100], the minimal effective dose (SD rats [1]) was 20 to 40 mg/kg, the minimal effective dose (SD rats [2]) was 20 to 40 mg/kg and the “Onset time” value (SD rats [2]) was 0.37 to 0.95 min. The “Righting Reflex Duration” value (SD rats [2]) was 6.65 to 26.68 min and the “Sedation Duration” value (SD rats [2]) was 62.20 to 114.60 min.
With `CCOC(=O)N(c1ccc(OCC(C)C)cc1)N1CCN(c2cc(C(C)C)c(O)c(C(C)C)c2)CC1` [Cpd-104] the minimal effective dose (SD rats [1]) was 20 to 40 mg/kg, the minimal effective dose (SD rats [2]) was 20 to 40 mg/kg and the “Onset time” value (SD rats [2]) was 0.42 min. The “Righting Reflex Duration” value (SD rats [2]) was 59.33 min and the “Sedation Duration” value (SD rats [2]) was 377.87 min.
`CCOC(=O)N(c1ccccc1)N1CCN(c2cc(C(C)C)c(O)c([C@@H](C)C3CC3)c2)CC1` [Cpd-105] was tested, and the minimal effective dose (SD rats [1]) was 10 to 20 mg/kg, the minimal effective dose (SD rats [2]) was 5 to 10 mg/kg and the “Onset time” value (SD rats [2]) was 0.68 to 1.80 min. For the same compound, the “Righting Reflex Duration” value (SD rats [2]) was 0.24 to 22.82 min and the “Sedation Duration” value (SD rats [2]) was 50.17 to 52.20 min.
`CCOC(=O)N(c1ccc(OC)cc1)N1CCN(c2cc(C(C)C)c(O)c([C@@H](C)C3CC3)c2)CC1` [Cpd-107] was tested, and the minimal effective dose (SD rats [1]) was 10 to 20 mg/kg, the minimal effective dose (SD rats [2]) was 5 to 10 mg/kg and the “Onset time” value (SD rats [2]) was 0.42 to 1.52 min. For the same compound, the “Righting Reflex Duration” value (SD rats [2]) was 0.72 to 34.8 min and the “Sedation Duration” value (SD rats [2]) was 34.37 to 73.58 min.
For `COc1ccc(C2(C(=O)OC(C)C)CCN(c3cc(C(C)C)c(O)c(C(C)C)c3)CC2)cc1` [Cpd-123], the minimal effective dose (SD rats [1]) was 20 to 40 mg/kg, the minimal effective dose (SD rats [2]) was 20 to 40 mg/kg and the “Onset time” value (SD rats [2]) was 0.77 min. The “Righting Reflex Duration” value (SD rats [2]) was 24.08 min and the “Sedation Duration” value (SD rats [2]) was 75.50 min.
`CCOC(=O)N(Cc1ccc(OC)cc1)N1CCN(c2cc(C(C)C)c(O)c(C(C)C)c2)CC1` [Cpd-124] was tested, and the minimal effective dose (SD rats [1]) was 20 to 40 mg/kg, the minimal effective dose (SD rats [2]) was 20 to 40 mg/kg and the “Onset time” value (SD rats [2]) was 0.15 to 0.68 min. For the same compound, the “Righting Reflex Duration” value (SD rats [2]) was 2.83 to 65.08 min.
`CCOC(=O)N(Cc1ccsc1)N1CCN(c2cc(C(C)C)c(O)c(C(C)C)c2)CC1` [Cpd-125] was tested, and the minimal effective dose (SD rats [1]) was 10 to 20 mg/kg, the minimal effective dose (SD rats [2]) was 10 to 20 mg/kg and the “Onset time” value (SD rats [2]) was 1.22 min. For the same compound, the “Righting Reflex Duration” value (SD rats [2]) was 6.87 min and the “Sedation Duration” value (SD rats [2]) was 53.93 min.

— patent publication US20260217651A1 (priority 2022, published 2026)
